Like-named read-outs stand apart in the source and are kept apart here. No end group written: not given here.
Experiments:
[1] = system: normal resting human T-cells; experiment: Cytokine (TNFα, IFNγ, IL-10, IL-4) secretion by resting T-cells, sandwich ELISA; assay type: cell-based; conditions: for TNFα secretion in resting normal human T-cells: highest concentration used (DTX-K 100 nM), FIG. 18a; for cytokine secretion profile (TNFα, IFNγ, IL-4, IL-10): data not shown
Experimental: Human T-cells: Normal human T-cells were purified from peripheral blood of healthy donors as described (19, 23, 61), and the resulting cell population, containing ≧90% T-cells, was suspended in RPMI medium supplemented with 10% FCS, 1% LGlutamine and antibiotics (Biological Industries, Bet Haemek, Israel) and maintained at 2×10^6 cells/ml (37° C./5% CO2).
Determination of TNFα, IFNγ, IL-10 and IL-4 by ELISA: Freshly-purified normal resting human T-cells (2×10^6/ml) were incubated in 24-well plates (Costar, Corning, N.Y.) and the various channel blockers were added. Importantly, no other stimulating molecule (e.g. phorbol esters, antigens, anti-CD3/CD28 mAbs) was added. Cytokine […] levels were measured in supernatants after 24 hr for TNFα and IFNγ and after 72 hr for IL-10 and IL-4, by quantitative sandwich ELISA (R&D, Minneapolis, Minn.), according to the manufacturer's instructions.

human T-cells = conditions: data not shown
Normal human T-cells = assay type: cell-based
Experimental: Normal human T-cells, isolated from fresh peripheral blood lymphocytes, were treated with 10 nM of neurotransmitters: either GnRH-II or dopamine (30 min or 24 hr at 37° C.). Following this neurotransmitter treatment, the T-cells were washed with phosphate-buffered saline (PBS) and […] with paraformaldehyde (PFA) for 20 min at room temperature (1×10^6 cells resuspended in 50 μl PBS+100 μl 0.5% PFA). The T-cells were then washed again with PBS and subjected to single immunofluorescence staining, using a mouse anti-human TCR/CD3zeta chain subunit (also called CD247) mAb (Serotec) at 1:100 dilution/1×10^6 cells, diluted in 10 μg/ml digitonin (Sigma) cold solution, for 30 min on ice. For isotype control, cells were stained with normal mouse serum (Jackson Immunoresearch Laboratories). The cells were then stained with a fluorescein isothiocyanate (FITC)-conjugated anti-mouse IgG (100 μl of 1:100 dilution; Jackson). Cells stained with the second Ab only served as additional negative controls. Fluorescence profiles were recorded in a FACSort.

[2] = system: human cancer growing in SCID mice; assay type: in vivo
ion channel = conditions: from manufacturer's data sheets and/or the literature; cited from earlier work
[3] = SCID mice, preliminary evidence

Dendrotoxin-K
dose dependence of TNFα secretion triggering ([1]; 24 hours exposure, FIG. 18b): dose dependent | TNFα secretion in resting normal human T-cells ([1]; 24 hours exposure): marked TNFα secretion | TNFα secretion by T-cells from six different individuals ([1]; 24 hr, 100 nM, FIG. 18c-h): triggered marked TNFα secretion | cytokine secretion profile (TNFα, IFNγ, IL-4, IL-10) [1]: selectively increased only TNFα secretion | effect on cell survival of human T-cells (human T-cells): no significant effect | effect on proliferation of human T-cells (human T-cells): no significant effect

GnRH-II (QHWSHGWYPG; ends and bridges not checked; UniProt O43555 24-33, looked up)
intensity of CD3zeta expression (number of CD3zeta per T-cell) (Normal human T-cells; 10 nM, 30 minutes exposure): very significant increase | number (percentage) of cells expressing CD3zeta (Normal human T-cells; 10 nM, 30 minutes exposure, no other molecules): very significant increase | overall in vivo activity of human tumor-specific T-cells against human cancer (cancer rejection) [2, 3]: augmented significantly

NCCc1ccc(O)c(O)c1 [dopamine]
number (percentage) of cells expressing CD3zeta (Normal human T-cells): clear increase | number of T-cells expressing CD3zeta, longer-term exposure versus 30 minutes (Normal human T-cells): significantly more pronounced | overall in vivo activity of human tumor-specific T-cells against human cancer (cancer rejection) ([2]; mouse, in vivo): augmented significantly

C=C[C@H]1C[N@@]2CC[C@H]1C[C@H]2[C@H](O)c1ccnc2ccc(OC)cc12 [Quinine]
TNFα secretion in resting normal human T-cells ([1]; 24 hours exposure): somewhat weaker effect | effective concentrations (ion channel): 1 to 10 µM

Kaliotoxin
TNFα secretion in resting normal human T-cells ([1]; 24 hours exposure): somewhat weaker effect | effective concentrations (ion channel): 0.001 to 0.1 µM

O=C(O)c1cc([N+](=O)[O-])ccc1NCCCc1ccccc1 [NPPB]
effective concentrations (ion channel): 100 to 200 µM

N[C@@H](CCC(=O)O)C(=O)O [glutamate]
overall in vivo activity of human tumor-specific T-cells against human cancer (cancer rejection) [2, 3]: augmented significantly

CCCCCCCCCCCCCC(=O)O[C@@H]1[C@@H](C)[C@@]2(O)[C@@H](C=C(CO)C[C@]3(O)C(=O)C(C)=C[C@@H]23)[C@@H]2C(C)(C)[C@]12OC(C)=O [PMA]
cytokine secretion profile (TNFα, IFNγ, IL-4, IL-10) [1]: increased secretion of TNFα, IFNγ, IL-4 and IL-10

Reference: US20090221069A1, “METHOD FOR AUGMENTING THE ABILITY OF T-CELLS AND OTHER CELLS FOR FIGHTING DISEASE AND INVADE DISEASED ORGANS, FOR ELEVATING CD3 ZETA AND TNF-ALPHA EXPRESSION IN T-CELLS, AND MIXING T-CELL BOOSTING AND KIT PARTICULARLY USEFUL IN SUCH METHOD” (priority 2005, published 2009)
